Values joined by “and” are separate entries in the source; they are usually repeats but may differ in a detail not shown here. Equal entries are not always repeated.
Legend:
[1] = Pharmacokinetic study after single oral administration to mice; assay type: in vivo; conditions: male, ICR, mouse, plasma
Text: (§1) The validated method was applied to pharmacokinetic studies of DA-7010 in mice, rats, and dogs. The protocols for the animal study were approved by the Department of Laboratory Animals, Institutional Animal Care and Use Committee (IACUC), on the Sungsim Campus of the Catholic University of Korea (approval no. 2014-022) or by IACUC of Biotoxtech (Cheongju, South Korea) (approval no. 140765). Male ICR mice and Sprague-Dawley rats (~8 weeks old) were purchased from Samtaco Bio (Osan, South Korea). Male beagle dogs (~10 months old), which are products from Beijing Marshall Biotechnology (Beijing, China), were used for this study. The accommodation and handling procedures for the animals were similar to those previously reported. Prior to dosing, the animals were fasted for 15 h and allowed to drink water freely. DA-7010 hydrochloride was administered in the pharmacokinetic study, and the dose of DA-7010 described below is based on the free base form of DA-7010.
DA-7010 (dissolved in distilled water) at a dose of 3 mg (in 10 mL) per kilogram was administered orally to the mouse groups A and B (n = 6 each) using gastric gavage. Blood samples (~ 50 μL) were collected into separate heparinized capillary tubes from the retro-orbital plexuses of mice that were under light anesthesia, which was achieved by isoflurane inhalation at 5, 30, 120, and 480 min for group A and 15, 60, 240, and 600 min for group B following the oral administration of DA-7010. The collected sample was immediately centrifuged, and a 25 μL plasma sample was stored at −20 °C until it was used for the LC-MS/MS analyses of DA-7010.
(§2) The pharmacokinetic parameters were calculated using noncompartmental analyses (WinNonlin; Pharsight Corporation, Mountain View, CA, USA). The AUC0-∞ was calculated using the trapezoidal rule-extrapolation method. The Cmax and Tmax were read directly from the experimental data.

[2] = Pharmacokinetic study after single oral administration to rats; assay type: in vivo; conditions: male, Sprague-Dawley, plasma, rat
Text: as §1
For the rat, the carotid artery was cannulated for serial blood sampling. DA-7010 (dissolved in distilled water) at a dose of 3 mg (in 2 mL) per kilogram was administered orally to the rats (n = 7) using gastric gavage. Blood samples (~50 μL) were collected at 0, 5, 10, 20, 30, 60, 120, 240, 360, 480, and 720 min via the carotid artery following the oral administration of the drug. The cannula was flushed immediately after each blood sampling to prevent blood clotting using a 0.3 mL heparinized 0.9% NaCl-injectable solution (20 units/mL). The same procedure described above was used for the collection and storage of the plasma samples.
as §2

[3] = Pharmacokinetic study after single oral administration to dogs; assay type: in vivo
Text: as §1
For the oral administration of DA-7010 in dogs, 3 mg/kg DA-7010 was loaded in a gelatin capsule (size 12, Torpac Inc., Fairfield, NJ, USA) without other excipients. Approximately 2 mL of blood was collected via the cephalic vein using a heparinized (100 IU/mL) 23 G syringe at pre-dose and 15, 30, 45, 60, 120, 240, 360, 480, 720, and 1440 min after the administration of the drug. The collection and storage of each plasma sample (25 μL) and extra plasma sample were performed using the same procedure described above.
as §2

[4] = Stability of DA-7010 in mouse plasma under various storage conditions; assay type: in vitro ADME; conditions: n = 3, mean ± SD
Experimental: (§3) The stability of DA-7010 in the plasma from the mice, rats, and dogs was evaluated by analyzing 3 replicates of low, medium, and high QC samples under various storage conditions: the bench-top short-term stability (at room temperature for 8 h), post-preparative stability (prepared samples kept in LC vials at 4 °C for 24 h), freeze–thaw stability (3 freeze/thaw (−20 °C/room temperature) cycles), and long-term freezing stability (−20 °C for 1 month). The analyte was determined to be stable when the estimated recovery (determined concentration/nominal concentration × 100%) was in the range of 85–115% and the RSD was < 15%.

[5] = Stability of DA-7010 in rat plasma under various storage conditions; assay type: in vitro ADME; conditions: n = 3, mean ± SD
Experimental: as §3

[6] = Stability of DA-7010 in dog plasma under various storage conditions; assay type: in vitro ADME; conditions: n = 3, mean ± SD
Experimental: as §3

[7] = Stability of DA-7010 in plasma, summary over all species; assay type: in vitro ADME, mice, rats, and dogs
Experimental: as §3

[8] = system: Gram-negative bacteria (except for Pseudomonas aeruginosa); set-up: method as in earlier work; conditions: cited from earlier work
[9] = system: carbapenem-resistant Acinetobacter baumannii; set-up: method as in earlier work; conditions: mice systemically infected with carbapenem-resistant Acinetobacter baumannii; cited from earlier work
[10] = mice, single oral dose 3 mg/kg, from mean concentration–time profile
[11] = representative sample 4 h after oral 3 mg/kg, read-out: Plasma concentration of DA-7010
[12] = rats (n = 7), single oral dose 3 mg/kg, mean ± SD
[13] = male, beagle, dog, plasma, dogs (n = 4), single oral dose 3 mg/kg in gelatin capsule, mean ± SD
[14] = 3 freeze/thaw (–20 °C/room temperature) cycles, nominal 30 ng/mL
[15] = 3 freeze/thaw (–20 °C/room temperature) cycles, nominal 400 ng/mL
[16] = 3 freeze/thaw (–20 °C/room temperature) cycles, nominal 8000 ng/mL
[17] = long term (‒20 °C over 1 month), nominal 30 ng/mL
[18] = long term (‒20 °C over 1 month), nominal 400 ng/mL
[19] = long term (‒20 °C over 1 month), nominal 8000 ng/mL
[20] = prepared plasma samples in LC vials, post-preparative (prepared samples 4 °C 24 h), nominal 30 ng/mL
[21] = prepared plasma samples in LC vials, post-preparative (prepared samples 4 °C 24 h), nominal 400 ng/mL
[22] = prepared plasma samples in LC vials, post-preparative (prepared samples 4 °C 24 h), nominal 8000 ng/mL
[23] = short term (room temperature 8 h), nominal 30 ng/mL
[24] = short term (room temperature 8 h), nominal 400 ng/mL
[25] = short term (room temperature 8 h), nominal 8000 ng/mL

C[C@@H]1COB2O[C@H](CN)c3cccc(c32)O1 [DA-7010, ((2S,7R)-7-methyl-7,8-dihydro-2H-1,6,9-trioxa-9a-borabenzo[cd]azulen-2-yl)methanamine]
Cmax [1, 10]: 1280 ng/mL
Tmax [1, 10]: 0.25 h
AUC(0-inf) ([1]; mice, single oral dose 3 mg/kg, from mean concentration–time profile (n = 6 per point)): 3920 ng·h/mL
half-life ([1]; mice, single oral dose 3 mg/kg, from mean concentration–time profile, read-out: Terminal half-life): 2.08 h
concentration at 4 h [1, 11]: 334 ng/mL
concentration at 4 h [2, 11]: 648 ng/mL
AUC(0-inf) [2, 12]: 5320 ng·h/mL
Cmax [2, 12]: 1330 ± 427 ng/mL
half-life ([2]; rats (n = 7), single oral dose 3 mg/kg, mean ± SD, read-out: Terminal half-life): 2.88 ± 0.81 h
Tmax ([2]; rats (n = 7), single oral dose 3 mg/kg, median (range)): 0.333 h
AUC(0-inf) [3, 13]: 21800 ng·h/mL
Cmax [3, 13]: 1820 ± 90.1 ng/mL
half-life ([3]; male, beagle, dog, plasma, dogs (n = 4), single oral dose 3 mg/kg in gelatin capsule, mean ± SD, read-out: Terminal half-life): 7.53 ± 0.563 h
Tmax ([3]; male, beagle, dog, plasma, dogs (n = 4), single oral dose 3 mg/kg in gelatin capsule, median (range)): 1 h
concentration at 4 h ([3]; male, beagle, plasma, dog, representative sample 4 h after oral 3 mg/kg, read-out: Plasma concentration of DA-7010): 1950 ng/mL
Systemic exposure in dogs relative to mice or rats ([3]; single oral dose 3 mg/kg): approximately four times higher
recovery at 30 ng/mL [4, 14]: 109 ± 6.63%
recovery at 400 ng/mL [4, 15]: 91.2 ± 2.22%
recovery at 8000 ng/mL [4, 16]: 87.7 ± 2.58%
recovery at 1 month, 30 ng/mL [4, 17]: 106 ± 1.54%
recovery at 1 month, 400 ng/mL [4, 18]: 95.5 ± 3.04%
recovery at 1 month, 8000 ng/mL [4, 19]: 88.5 ± 1.77%
recovery at 24 h, 30 ng/mL [4, 20]: 106 ± 5.14%
recovery at 24 h, 400 ng/mL [4, 21]: 92.7 ± 2.58%
recovery at 24 h, 8000 ng/mL [4, 22]: 89.9 ± 7.84%
recovery at 8 h, 30 ng/mL [4, 23]: 109 ± 4.97%
recovery at 8 h, 400 ng/mL [4, 24]: 97.5 ± 6.48%
recovery at 8 h, 8000 ng/mL [4, 25]: 89 ± 2.24%
recovery at 30 ng/mL [5, 14]: 107 ± 5.92%
recovery at 400 ng/mL [5, 15]: 94.8 ± 6.2%
recovery at 8000 ng/mL [5, 16]: 100 ± 0.407%
recovery at 1 month, 30 ng/mL [5, 17]: 85.5 ± 0.618%
recovery at 1 month, 400 ng/mL [5, 18]: 95.2 ± 3.3%
recovery at 1 month, 8000 ng/mL [5, 19]: 107 ± 2.67%
recovery at 24 h, 30 ng/mL [5, 20]: 95.5 ± 3.65%
recovery at 24 h, 400 ng/mL [5, 21]: 101 ± 1.33%
recovery at 24 h, 8000 ng/mL [5, 22]: 111 ± 4.06%
recovery at 8 h, 30 ng/mL [5, 23]: 110 ± 4.64%
recovery at 8 h, 400 ng/mL [5, 24]: 97.9 ± 0.394%
recovery at 8 h, 8000 ng/mL [5, 25]: 104 ± 0.647%
recovery at 30 ng/mL [6, 14]: 110 ± 3.32%
recovery at 400 ng/mL [6, 15]: 107 ± 2.01%
recovery at 8000 ng/mL [6, 16]: 114 ± 0.0718%
recovery at 1 month, 30 ng/mL [6, 17]: 113 ± 0.5%
recovery at 1 month, 400 ng/mL [6, 18]: 97.3 ± 1.22%
recovery at 1 month, 8000 ng/mL [6, 19]: 111 ± 3.13%
recovery at 24 h, 30 ng/mL [6, 20]: 110 ± 5.48%
recovery at 24 h, 400 ng/mL [6, 21]: 108 ± 1.72%
recovery at 24 h, 8000 ng/mL [6, 22]: 116 ± 2.34%
recovery at 8 h, 30 ng/mL [6, 23]: 107 ± 3.08%
recovery at 8 h, 400 ng/mL [6, 24]: 92.9 ± 1.62%
recovery at 8 h, 8000 ng/mL [6, 25]: 108 ± 1.22%
Stability, mean recoveries ([7]; 8 h at room temperature, 24 h in LC vial at 4 °C after preparation, 1 month at –20 °C): > 85.5%
Stability, mean recoveries ([7]; after three freeze/thaw (–20 °C/room temperature) cycles): > 87.7%
minimum inhibitory concentration (MIC) [8]: 0.25 to 2 µg/mL
ED50 (effective oral dose that protected 50% of mice) [9]: 3 mg/kg and 1.9 to 3 mg/kg

From article PMC7922803, “Development and Validation of an LC-MS/MS Method for Quantification of the Novel Antibacterial Candidate DA-7010 in Plasma and Application to a Preclinical Pharmacokinetic Study” (Pharmaceuticals, 2021)
